According to patent US20170119776A1, “CHIRAL 2,5-DISUBSTITUTED CYCLOPENTANECARBOXYLIC ACID DERIVATIVES AND USE THEREOF” (BAYER PHARMA AKTIENGESELLSCHAFT, priority 2014, published 2017):

Experiments:
[1] = target: T1, human macrophage elastase (HME/hMMP-12) (Homo sapiens, UniProt P39900); test: In vitro HME inhibition test in the presence of serum albumin (2% BSA); format: biochemical; details: presence of serum albumin (BSA, 2% w/w)
T1 construct: 0.5 nM HME; purchased R&D Systems 917-MP
Source text: The activity of the compounds according to the invention towards HME (MMP-12) is ascertained in an in vitro inhibition test. The HME-mediated amidolytic cleavage of a suitable peptide substrate leads herein to a fluorescent light increase. The signal intensity of the fluorescent light is directly proportional to the enzyme activity. The active concentration of a test compound at which half of the enzyme is inhibited (50% signal intensity of the fluorescent light) is given as IC50 value.
This test corresponds to the standard HME inhibition test described above, but using a modified reaction buffer. This reaction buffer additionally comprises bovine serum albumin (BSA, fatty acid-free, A6003, Sigma-Aldrich) of a final concentration of 2% (w/w), which corresponds to approximately half of the physiological serum albumin content.
Table 1 below gives the IC50 values from these HME inhibition tests for the working examples of the present invention and also for two structurally related comparison compounds from the prior art (as racemate or separated enantiomers)→(sometimes as average values from several independent individual determinations and rounded to two significant places). The IC50 values were determined for racemates and enantiomers from differently generated DMSO stock solutions. Whereas an automatically created DMSO stock solution from the internal substance logistics was used for racemates by means of a standard method, for enantiomers and for a more precise direct comparison of the enantiomers with one another, in each case a freshly produced, manually prepared DMSO stock solution was used.

[2] = Pharmacokinetic investigations in vivo, rat; details: Rat (Wistar)
Description: (§1) The substance to be examined is administered to rats, mice or dogs intravenously as a solution (for example in corresponding plasma with a small addition of DMSO or in a PEG/ethanol/water mixture), and peroral administration is effected as a solution (for example in Solutol/ethanol/water or PEG/ethanol/water mixtures) or as a suspension (e.g. in a water/tylose mixture), in each case via a gavage. After administration of the substance, blood is taken from the animals at fixed times. The blood is heparinized, then plasma is obtained therefrom by centrifugation. The test substance is quantified analytically in the plasma via LC-MS/MS. From the plasma concentration/time plots determined in this way, using an internal standard and with the aid of a validated computer program, the pharmacokinetic parameters, such as AUC (area under the concentration/time curve), Cmax (maximum plasma concentration), t1/2 (half life), VSS (distribution volume) and CL (clearance), and the absolute and relative bioavailability F and Frel (i.v./p.o. comparison or comparison of suspension to solution after p.o. administration), are calculated.

[3] = Pharmacokinetic investigations in vivo, mouse; details: Mouse (C57BL/6)
Description: as §1

[4] = Pharmacokinetic investigations in vivo, dog; details: Dog (Beagle)
Description: as §1

[5] = Hepatocyte assay for determining the metabolic stability; format: in vitro ADME; details: incubation with rat hepatocytes; read-out: Fmax (maximum possible bioavailability, well-stirred)
Description: (§2) The metabolic stability of test compounds towards hepatocytes is determined by incubating the compounds at low concentrations (preferably below or around 1 μM) and at low cell counts (preferably at 1*10^6 cells/ml) in order to ensure the greatest possible linear kinetic conditions in the experiment. Seven samples from the incubation solution are removed within a stipulated time frame for the LC-MS analysis in order to determine the half life (i.e. the degradation) of the particular compound. This half life is used to calculate various “Clearance” parameters (CL) and “Fmax” values (see below).
(§3) The CL and Fmax values are a measure of the phase 1 and phase 2 metabolism of the compounds in the hepatocytes. In order to keep the influence of the organic solvent on the enzymes in the incubation mixtures as low as possible, its concentration is generally limited to 1% (acetonitrile) or 0.1% (DMSO).
(§4) For all species and races, a hepatocyte cell count in the liver of 1.1*10^8 cells/g of liver is estimated.
(§5) The calculated parameters and their meaning are: • Fmax well-stirred [%] Maximum possible bioavailability following oral application
(§6) Calculation: (1−CLblood well-stirred/QH)*100 • CLblood well-stirred [L/(h*kg)] Calculated blood clearance (well stirred model) […]

[6] = tested on: rat hepatocytes; test: as above; format: in vitro ADME; details: incubation with rat hepatocytes
Description: as §2, §3, §4, §5, §6

[7] = plasma, iv, read-out: CLPlasma CLblood (converted)
[8] = plasma, po, p.o., read-out: t1/2 p.o. (converted)

T1 sequence (P39900 106-470): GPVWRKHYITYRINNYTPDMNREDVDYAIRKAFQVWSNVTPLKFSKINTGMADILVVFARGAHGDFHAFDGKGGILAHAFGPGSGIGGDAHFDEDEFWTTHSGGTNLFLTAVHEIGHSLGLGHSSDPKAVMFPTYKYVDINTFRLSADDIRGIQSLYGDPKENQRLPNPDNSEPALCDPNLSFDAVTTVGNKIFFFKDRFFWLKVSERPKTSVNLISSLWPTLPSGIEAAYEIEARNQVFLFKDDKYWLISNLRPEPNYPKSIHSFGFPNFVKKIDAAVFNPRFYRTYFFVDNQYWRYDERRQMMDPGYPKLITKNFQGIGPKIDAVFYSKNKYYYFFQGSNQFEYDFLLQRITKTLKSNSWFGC

Question: Which IC50 [1] does the source give for `CCCCCOc1ccc(C(=O)CC(CCn2nnc3ccccc3c2=O)C(=O)O)cc1` (single isomer, unassigned; enantiomer 1) [Comparative Example B-2, (+)-4-Oxo-2-[2-(4-oxo-1,2,3-benzotriazin-3(4H)-yl)ethyl]-4-[4-(pentyloxy)phenyl]butanoic acid (enantiomer 1)] here?
Answer: 170 nM

Question: With `O=C(O)[C@@H]1[C@@H](Cn2nnc3ccccc3c2=O)CC[C@H]1C(=O)c1ccc(-c2ccc(Cl)cc2)cc1` (single isomer, unassigned; enantiomer 2) [Comparative Example A-3, (1RS,2RS,5SR)-2-[(4′-Chlorobiphenyl-4-yl)carbonyl]-5-[(4-oxo-1,2,3-benzotriazin-3(4H)-yl)methyl]cyclopentanecarboxylic acid (enantiomer 2)] as the compound, how does the IC50 [1] read?
Answer: 5.4 nM

Question: With `O=C(O)[C@H]1[C@H](Cn2nnc3ccccc3c2=O)CC[C@@H]1C(=O)c1ccc(OCc2ccccc2)cc1` [Example 2, (+)-(1S,2S,5R)-2-[4-(Benzyloxy)benzoyl]-5-[(4-oxo-1,2,3-benzotriazin-3(4H)-yl)methyl]cyclopentanecarboxylic acid] as the compound, how does the F ([2]; bioavailability from solution) read?
Answer: 100%

Question: What about the AUCnorm i.v. ([2]; i.v.) of the same compound?
Answer: 93.6 kg·h/L

Question: What about the Frel ([2]; suspension vs solution p.o.) of the same compound?
Answer: 97%

Question: And the clearance [2, 7]?
Answer: 0.183 mL/min/kg

Question: What about the half-life [2, 8] of the same compound?
Answer: 8.4 h

Question: What about the F ([3]; bioavailability from solution) of the same compound?
Answer: 84%

Question: And the AUCnorm i.v. ([3]; i.v.)?
Answer: 44.6 kg·h/L

Question: What about the clearance [3, 7] of the same compound?
Answer: 0.367 mL/min/kg

Question: And the half-life [3, 8]?
Answer: 5 h

Question: What about the F ([4]; bioavailability from solution) of the same compound?
Answer: 100%

Question: And the AUCnorm i.v. ([4]; i.v.)?
Answer: 10.6 kg·h/L

Question: And the clearance [4, 7]?
Answer: 1.57 mL/min/kg

Question: What about the half-life [4, 8] of the same compound?
Answer: 14.4 h

Question: What about the bioavailability [5] of the same compound?
Answer: 84.4%

Question: And the “CLblood (calculated blood clearance, well-stirred)” value [6]?
Answer: 10.8 mL/min/kg

Question: And the IC50 [1]?
Answer: 8.4 nM
